Our source for the Bliss excess values is the supplement of paper PMC11061612.

Experiment in all cases: Bliss excess, mean over the matrix (fraction); higher = more synergy
The test system of test [1] is DiFi (Colorectal Carcinoma). Summed up:
(§1)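 After 24 hours at 37°C and 5% CO2 in 1536-well plates, cells in DMEM/F12 or RPMI plus 10% FBS received two-drug dose matrices for 72 hours. Viability came from CellTiter-Glo 2.0 luminescence and was scaled as inhibition, anchored at 0 by vehicle wells and at 1 by blank wells. Combination Emax is taken as the second-highest inhibition in the matrix, and Bliss excess as the observed combination effect less EA + EB − EA·EB, with EA and EB the single-agent effects.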

Test [2] deals with P12-ICHIKAWA (T-Lymphoblastic Leukemia). Summed up: as §1
Test [3] has as its system TE-6 (Esophageal Squamous Cell Carcinoma). The gist of the method: as §1
The subject of test [4] is NCI-H847 (Small Cell Lung Carcinoma). Summed up:
as §1

Test [5] concerns K-562 (Chronic Myelogenous Leukemia). Summed up:
as §1

Test [6] concerns ES8 (Ewing's Sarcoma). The gist of the method:
as §1

The subject of test [7] is TC-71 (Ewing's Sarcoma). The gist of the method: as §1
Test [8] deals with MKN28 (Gastric Carcinoma). Summed up: as §1
The subject of test [9] is PANC-08-13 (Pancreatic Carcinoma). Summed up: as §1
The test system of test [10] is KCL-22 (Chronic Myelogenous Leukemia). Summed up: as §1
Test [11] deals with SR (Other Blood Carcinomas). The gist of the method: as §1
Test [12] deals with NCI-H1792 (Lung Adenocarcinoma). Summed up: as §1
Test [13] deals with MOLT-16 (T-Lymphoblastic Leukemia). Summed up: as §1
In test [14] the test system is WM-115 (Melanoma). Summed up:
as §1

In test [15] the test system is KYSE-180 (Esophageal Squamous Cell Carcinoma). The gist of the method: as §1
Test [16] has as its system GR-ST (B-Lymphoblastic Leukemia). Summed up:
as §1

The test system of test [17] is EVSA-T (Breast Carcinoma). The gist of the method:
as §1

The subject of test [18] is LN-18 (Glioblastoma). Summed up: as §1
Test [19] has as its system HL-60 (Acute Myeloid Leukemia). The gist of the method: as §1
In test [20] the test system is MFM-223 (Breast Carcinoma). The gist of the method: as §1

Turning to `CN(C)CCCOc1ccc(-c2ccc3ncc4c(c3c2)n(C2CCOCC2)c(=O)n4C)cn1` [AZD0156] + O=C(c1cc(Cc2n[nH]c(=O)c3ccccc23)ccc1F)N1CCN(C(=O)C2CC2)CC1 [Olaparib] (first compound max 3 µM, partner max 3 µM), the Bliss excess in test [1] was -0.0082; in test [2], 0.191; in test [3], 0.0029; in [4], 0.227; in test [5] it was 0.0271; in [6] it was 0.39. Also, the Bliss excess in test [7] is 0.3; in [8] it was -0.0432; in test [9], -0.0215; in [10] it was 0.157; in test [11] it was 0.194; in test [12], 0.0848. Moreover, the Bliss excess in [13] was determined as 0.397; in test [14], 0.0028; in test [15] it was 0.0654; in [16], 0.131; in test [17], 0.092; in test [18], 0.0366. For the same molecule, the results for the Bliss excess in [19] and in [20] were 0.141 and -0.0186, respectively.

Consider `C=CCn1c(=O)c2cnc(Nc3ccc(N4CCN(C)CC4)cc3)nc2n1-c1cccc(C(C)(C)O)n1` [AZD1775] + C1CN(CCC1(C(=O)N[C@@H](CCO)C2=CC=C(C=C2)Cl)N)C3=NC=NC4=C3C=CN4 [Capivasertib] (first compound max 3 µM, partner max 3 µM), for which the Bliss excess in test [1] was 0.0272; in test [2], 0.0076; in test [3], 0.0422; in test [4], -0.0643; in test [5], -0.0516; in test [6] it was 0.0352. For the same molecule, the Bliss excess was 0.0131 in [7]; -0.0219 in test [8]; -0.0493 in test [9]; 0.035 in test [10]; 0.0013 in test [11]; 0.0053 in test [12]. Further, the Bliss excess in test [13] is 0.0568; in [14], -0.116; in test [15], -0.0066; in test [16] it was -0.0771; in test [17], 0.129; in test [18] it was 0.0196. The figures for the Bliss excess in test [19] and in test [20] were 0.0265 and -0.0369, respectively.

Take `CN(CCO)CC[C@H](CSc1ccccc1)Nc1ccc(S(=O)(=O)NC(=O)c2ccc(N3CCC([C@@H](O)c4ccccc4-c4ccc(Cl)cc4)CC3)cc2)cc1S(=O)(=O)C(F)(F)F` [AZD4320] + C1CN(CCC1(C(=O)N[C@@H](CCO)C2=CC=C(C=C2)Cl)N)C3=NC=NC4=C3C=CN4 [Capivasertib] (first compound max 1 µM, 7x7, partner max 3 µM): the Bliss excess was -0.0475 in test [1]; 0.0119 in [2]; 0.0377 in [3]; 0.0226 in test [4]; -0.0155 in [5]; -0.0427 in [6]. In addition, the Bliss excess in test [7] was -0.0699; in test [8], -0.0404; in test [9], -0.0374; in test [10], -0.0075; in test [11] it was 0.095; in test [12], -0.0643. Besides, the Bliss excess is -0.0201 in [13]; 0.0144 in test [14]; -0.0057 in test [15]; 0.0039 in [16]; -0.0161 in [17]; -0.053 in test [18]. Also, the Bliss excess is -0.0438 in test [19] and -0.01 in test [20].

Turning to `CN(CCO)CC[C@H](CSc1ccccc1)Nc1ccc(S(=O)(=O)NC(=O)c2ccc(N3CCC([C@@H](O)c4ccccc4-c4ccc(Cl)cc4)CC3)cc2)cc1S(=O)(=O)C(F)(F)F` [AZD4320] + C=CCn1c(=O)c2cnc(Nc3ccc(N4CCN(C)CC4)cc3)nc2n1-c1cccc(C(C)(C)O)n1 [AZD1775] (first compound max 1 µM, partner max 1 µM), the Bliss excess in test [1] worked out at 0.007; in test [2] it was 0.0899; in test [3] it was 0.0061; in test [4] it was 0.0494; in test [5], 0.0582; in [6], 0.0959. The Bliss excess in test [7] was 0.0339; in test [8] it was -0.0545; in test [9], -0.0019; in test [10] it was 0.0022; in [11] it was 0.254; in test [12], 0.0128. Further, the Bliss excess in [13] was 0.0417; in [14], 0.0052; in test [15], 0.0258; in test [16], -0.0585; in test [17] it was 0.0394; in test [18] it was 0.0152. In addition, the Bliss excess in test [19] is 0.0574; in test [20] it was -0.0103.

`CN(CCO)CC[C@H](CSc1ccccc1)Nc1ccc(S(=O)(=O)NC(=O)c2ccc(N3CCC([C@@H](O)c4ccccc4-c4ccc(Cl)cc4)CC3)cc2)cc1S(=O)(=O)C(F)(F)F` [AZD4320] + CCN(CCO)CCCOc1ccc2c(Nc3cc(CC(=O)Nc4cccc(F)c4)[nH]n3)ncnc2c1 [AZD2811] (first compound max 1 µM, 7x7, partner max 1 µM): the Bliss excess in [1] is -0.013; in test [2], 0.0103; in test [3] it was 0.0228; in test [4], 0.0014; in test [5], 0.0055; in test [6], 0.0276. Further, the Bliss excess in test [7] is -0.0299; in [8], -0.0107; in test [9] it was -0.0166; in test [10] it was 0.0572; in test [11], 0.0343; in test [12], -0.0267. Further, the Bliss excess in test [13] is -0.0049; in test [14] it was -0.0003; in test [15] it was 0.0189; in test [16] it was -0.0272; in test [17], 0.156; in test [18], -0.0187. Further, the Bliss excess was -0.0281 in test [19] and -0.0022 in test [20].

On to `CN(CCO)CC[C@H](CSc1ccccc1)Nc1ccc(S(=O)(=O)NC(=O)c2ccc(N3CCC([C@@H](O)c4ccccc4-c4ccc(Cl)cc4)CC3)cc2)cc1S(=O)(=O)C(F)(F)F` [AZD4320] + CN(C)CCCOc1ccc(-c2ccc3ncc4c(c3c2)n(C2CCOCC2)c(=O)n4C)cn1 [AZD0156] (first compound max 1 µM, 7x7, partner max 1 µM), for which the Bliss excess in [1] was 0.0046; in test [2] it was 0.024; in test [3], 0.0418; in [4], 0.0109; in test [5], -0.0027; in test [6], 0.0079. Besides, the Bliss excess in test [7] was -0.0112; in test [8], -0.0429; in [9] it was -0.0051; in [10] it was 0.0373; in test [11], 0.0454; in test [12], -0.0144. For the same molecule, the Bliss excess in [13] was -0.0592; in test [14], -0.0469; in [15] it was -0.0037; in test [16] it was -0.0358; in test [17] it was -0.0125; in test [18], -0.0015. The Bliss excess in test [19] was 0.0228; in test [20], -0.0347.

Regarding `CN(CCO)CC[C@H](CSc1ccccc1)Nc1ccc(S(=O)(=O)NC(=O)c2ccc(N3CCC([C@@H](O)c4ccccc4-c4ccc(Cl)cc4)CC3)cc2)cc1S(=O)(=O)C(F)(F)F` [AZD4320] + C[C@@H]1COCCN1C2=NC(=NC(=C2)C3(CC3)[S@](=N)(=O)C)C4=C5C=CNC5=NC=C4 [AZD6738] (first compound max 1 µM, 7x7, partner max 10 µM), the Bliss excess in [1] was -0.0044; in test [2] it was -0.0133; in test [3], -0.0927; in test [4], -0.0091; in test [5], -0.0245; in test [6], 0.155. The Bliss excess in test [7] was 0.075; in test [8], -0.0528; in test [9], -0.019; in test [10], 0.0092; in test [11], -0.0068; in [12], -0.0647. Moreover, the Bliss excess was -0.0095 in [13]; -0.0413 in [14]; -0.0042 in test [15]; -0.0413 in test [16]; -0.0105 in [17]; -0.0705 in test [18]. In addition, the values for the Bliss excess in test [19] and in test [20] were -0.0348 and -0.0367, respectively.
